From patent US10168342B2, “Lipid probes and uses thereof” (THE SCRIPPS RESEARCH INSTITUTE, priority 2015, dated 2019)
Like-named read-outs stand apart in the source and are kept apart here.

Columns and labels:
[1] = target: A-DA lipid probe targets in A549 cells (Homo sapiens, UniProt Q14534); test: In situ competitive SILAC profiling with A-DA probe in (PMA-stimulated) A549 cells; settings: A549 cells, A-DA probe
[2] = target: T1, A-DA lipid probe targets in A549 cells (Homo sapiens, UniProt Q8N5I4); test: as above; settings: A549 cells, A-DA probe
T1 sequence (Q8N5I4 1-330): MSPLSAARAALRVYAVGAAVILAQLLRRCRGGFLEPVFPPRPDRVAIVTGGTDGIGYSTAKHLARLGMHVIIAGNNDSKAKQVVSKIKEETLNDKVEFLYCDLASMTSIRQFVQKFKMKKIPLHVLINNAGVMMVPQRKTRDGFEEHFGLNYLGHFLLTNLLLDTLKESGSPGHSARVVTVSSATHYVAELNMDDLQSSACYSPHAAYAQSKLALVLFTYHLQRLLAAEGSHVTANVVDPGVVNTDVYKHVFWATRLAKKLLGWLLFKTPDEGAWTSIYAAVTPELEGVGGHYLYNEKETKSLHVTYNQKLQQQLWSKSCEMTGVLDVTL

[3] = target: T2, A-DA lipid probe targets in A549 cells (Homo sapiens, UniProt P67812); test: as above; settings: A549 cells, A-DA probe
T2 sequence (P67812 1-179): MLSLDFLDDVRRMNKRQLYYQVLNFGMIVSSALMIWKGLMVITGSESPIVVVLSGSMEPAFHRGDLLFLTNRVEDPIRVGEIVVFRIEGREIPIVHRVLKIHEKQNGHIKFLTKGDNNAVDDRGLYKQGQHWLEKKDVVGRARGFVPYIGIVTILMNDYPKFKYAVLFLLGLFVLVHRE

[4] = target: A-DA lipid probe targets in A549 cells (Homo sapiens, UniProt Q9NX47); test: as above; settings: A549 cells, A-DA probe
[5] = target: T3, A-DA lipid probe targets in A549 cells (Homo sapiens, UniProt P30519); test: as above; settings: A549 cells, A-DA probe
T3 sequence (P30519 1-316): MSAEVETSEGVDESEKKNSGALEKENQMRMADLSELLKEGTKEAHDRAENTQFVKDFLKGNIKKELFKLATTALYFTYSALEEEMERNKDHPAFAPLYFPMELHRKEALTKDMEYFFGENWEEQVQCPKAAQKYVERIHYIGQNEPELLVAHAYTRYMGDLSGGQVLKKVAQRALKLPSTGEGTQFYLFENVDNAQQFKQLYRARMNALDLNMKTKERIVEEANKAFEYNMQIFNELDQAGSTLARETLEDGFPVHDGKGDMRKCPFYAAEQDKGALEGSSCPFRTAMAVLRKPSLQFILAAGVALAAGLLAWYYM

[6] = target: T4, AEA-DA lipid probe targets in Neuro2a cells (Mus musculus, UniProt Q8BVE8)
T4 sequence (Q8BVE8 1-1365): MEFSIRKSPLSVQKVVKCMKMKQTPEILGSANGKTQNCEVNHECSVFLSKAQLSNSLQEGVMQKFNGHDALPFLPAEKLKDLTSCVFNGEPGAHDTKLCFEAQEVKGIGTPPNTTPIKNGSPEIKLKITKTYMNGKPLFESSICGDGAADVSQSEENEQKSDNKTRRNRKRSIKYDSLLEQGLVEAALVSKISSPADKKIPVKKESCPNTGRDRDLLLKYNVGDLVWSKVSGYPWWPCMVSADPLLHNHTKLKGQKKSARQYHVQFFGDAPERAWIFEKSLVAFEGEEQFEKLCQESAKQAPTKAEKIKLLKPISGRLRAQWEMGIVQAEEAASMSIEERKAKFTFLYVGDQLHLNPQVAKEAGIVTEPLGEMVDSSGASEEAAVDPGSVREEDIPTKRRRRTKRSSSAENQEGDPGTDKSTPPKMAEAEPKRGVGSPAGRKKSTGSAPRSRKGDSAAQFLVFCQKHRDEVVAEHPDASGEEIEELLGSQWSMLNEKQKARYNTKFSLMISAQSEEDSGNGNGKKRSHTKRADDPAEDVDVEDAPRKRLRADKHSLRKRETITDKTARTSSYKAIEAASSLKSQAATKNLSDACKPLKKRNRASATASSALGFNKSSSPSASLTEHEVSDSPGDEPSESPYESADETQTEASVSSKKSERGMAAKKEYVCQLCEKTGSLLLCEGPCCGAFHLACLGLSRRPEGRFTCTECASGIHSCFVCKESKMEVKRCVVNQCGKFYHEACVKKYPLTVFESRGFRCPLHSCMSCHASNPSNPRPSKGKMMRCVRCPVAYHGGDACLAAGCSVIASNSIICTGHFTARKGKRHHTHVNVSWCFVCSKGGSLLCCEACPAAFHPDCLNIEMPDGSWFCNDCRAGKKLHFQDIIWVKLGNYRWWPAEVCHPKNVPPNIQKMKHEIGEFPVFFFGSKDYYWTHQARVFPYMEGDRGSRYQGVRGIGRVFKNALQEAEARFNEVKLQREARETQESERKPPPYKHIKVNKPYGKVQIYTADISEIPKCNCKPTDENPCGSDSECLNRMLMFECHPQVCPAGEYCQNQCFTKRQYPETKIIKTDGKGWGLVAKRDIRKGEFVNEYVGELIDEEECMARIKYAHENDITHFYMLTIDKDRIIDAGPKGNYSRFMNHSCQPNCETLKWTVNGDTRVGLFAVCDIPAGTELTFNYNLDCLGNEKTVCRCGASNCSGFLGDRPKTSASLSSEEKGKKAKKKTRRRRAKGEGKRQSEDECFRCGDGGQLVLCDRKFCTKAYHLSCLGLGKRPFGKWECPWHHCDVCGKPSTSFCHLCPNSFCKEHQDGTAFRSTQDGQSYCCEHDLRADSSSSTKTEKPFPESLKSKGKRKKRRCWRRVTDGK

[7] = target: AEA-DA lipid probe targets in Neuro2a cells (Mus musculus, UniProt Q99KI3); settings: competitor 25 μM
[8] = target: AEA-DA lipid probe targets in Neuro2a cells (Mus musculus, UniProt Q78IK4); settings: protein Apool; Neuro2a cells; competitor 25 μM
Chain of AEA-DA lipid probe targets in Neuro2a cells (Mus musculus, UniProt Q78IK4) (Q78IK4 28-265): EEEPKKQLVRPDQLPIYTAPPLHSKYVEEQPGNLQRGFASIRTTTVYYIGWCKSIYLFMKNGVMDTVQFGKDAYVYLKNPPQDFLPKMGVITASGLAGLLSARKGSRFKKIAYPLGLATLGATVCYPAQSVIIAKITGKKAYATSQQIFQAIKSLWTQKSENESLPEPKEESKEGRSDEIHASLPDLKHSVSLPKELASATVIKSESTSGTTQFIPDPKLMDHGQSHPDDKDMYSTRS

Chain of A-DA lipid probe targets in A549 cells (Homo sapiens, UniProt Q14534) (Q14534 whole entry): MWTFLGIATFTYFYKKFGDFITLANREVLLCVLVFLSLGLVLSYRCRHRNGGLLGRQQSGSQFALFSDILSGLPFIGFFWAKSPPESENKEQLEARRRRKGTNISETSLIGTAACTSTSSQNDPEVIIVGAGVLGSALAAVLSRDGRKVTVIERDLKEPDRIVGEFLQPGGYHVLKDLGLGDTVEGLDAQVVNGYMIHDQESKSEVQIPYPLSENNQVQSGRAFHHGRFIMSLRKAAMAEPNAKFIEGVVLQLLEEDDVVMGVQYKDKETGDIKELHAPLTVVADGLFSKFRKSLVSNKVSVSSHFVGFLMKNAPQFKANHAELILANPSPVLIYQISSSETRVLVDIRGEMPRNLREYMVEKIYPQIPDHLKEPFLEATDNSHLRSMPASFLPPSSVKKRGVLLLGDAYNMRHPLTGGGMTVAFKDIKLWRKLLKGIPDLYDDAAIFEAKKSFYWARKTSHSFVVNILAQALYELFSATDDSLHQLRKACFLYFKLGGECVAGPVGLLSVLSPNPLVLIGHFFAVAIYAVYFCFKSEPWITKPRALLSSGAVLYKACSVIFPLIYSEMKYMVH
Chain of A-DA lipid probe targets in A549 cells (Homo sapiens, UniProt Q9NX47) (Q9NX47 whole entry): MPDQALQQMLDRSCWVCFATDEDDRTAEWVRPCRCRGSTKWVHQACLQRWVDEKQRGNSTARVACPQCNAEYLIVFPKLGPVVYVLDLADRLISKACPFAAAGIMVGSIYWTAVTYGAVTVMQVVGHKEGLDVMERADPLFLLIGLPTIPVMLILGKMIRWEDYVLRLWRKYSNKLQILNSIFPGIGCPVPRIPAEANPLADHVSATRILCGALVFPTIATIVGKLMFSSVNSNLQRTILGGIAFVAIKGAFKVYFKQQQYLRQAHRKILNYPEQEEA
Chain of AEA-DA lipid probe targets in Neuro2a cells (Mus musculus, UniProt Q99KI3) (Q99KI3 whole entry): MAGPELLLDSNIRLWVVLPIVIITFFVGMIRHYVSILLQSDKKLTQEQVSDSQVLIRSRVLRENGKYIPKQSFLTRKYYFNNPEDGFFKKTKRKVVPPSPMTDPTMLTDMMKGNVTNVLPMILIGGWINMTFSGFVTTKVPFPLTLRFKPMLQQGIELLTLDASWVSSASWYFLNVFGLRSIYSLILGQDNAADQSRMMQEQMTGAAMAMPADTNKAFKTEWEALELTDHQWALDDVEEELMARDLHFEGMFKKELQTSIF

In the case of `O=C(/C=C/c1cccnc1)NCCCCC1CCN(C(=O)c2ccccc2)CC1` [FK-866, reference compound], the “SILAC ratio, SQLE (Q14534)” value ([1]; competitor 25 μM) is reported as 1.6, the “SILAC ratio, DHRSX (Q8N5I4)” value ([2]; competitor 25 μM) is reported as 1.4 and the “SILAC ratio, SEC11A (P67812)” value ([3]; competitor 25 μM) is reported as 1.2. For the same compound, the “SILAC ratio, MARCH5 (Q3KNM2)” value ([4]; competitor 25 μM) was 1.3 and the “SILAC ratio, HMOX2 (P30519)” value ([5]; competitor 25 μM) was 1.3.

For `CCCCC/C=C\C/C=C\C/C=C\C/C=C\CCCC(=O)NCCO` [AEA, anandamide, reference compound], the “SILAC ratio Whsc1” value ([6]; competitor 200 μM) was 1.0.

In the case of `CN1CCN(C(=O)c2c(-c3ccccc3)c3cc([N+](=O)[O-])ccc3n2C)CC1` [KML110, (1-Methyl-5-nitro-3-phenyl-1H-indol-2-yl)(4-methylpiperazin-1-yl)methanone], the “SILAC ratio Emc3” value [7] is reported as 1.0 and the “SILAC ratio (AEA-DA competition)” value [8] is reported as 1.0.

With `C=CCN(C)CCCCCCOc1ccc(C(=O)c2ccc(Br)cc2)c(F)c1` [Ro 48-8071, reference compound] the “SILAC ratio Emc3” value [7] was 1.5 and the “SILAC ratio (AEA-DA competition)” value [8] was 0.9.

`C=CCN(C)CCCCCCOc1ccc(C(=O)c2ccc(Br)cc2)c(F)c1` [Ro488071] was tested, and the “SILAC ratio, SQLE (Q14534)” value ([1]; competitor 5 μM) was 1.4, the “SILAC ratio, SQLE (Q14534)” value ([1]; competitor 50 μM) was 3.3 and the “SILAC ratio, DHRSX (Q8N5I4)” value ([2]; competitor 5 μM) was 1.6. The “SILAC ratio, DHRSX (Q8N5I4)” value ([2]; competitor 50 μM) was 2.7, the “SILAC ratio, SEC11A (P67812)” value ([3]; competitor 5 μM) was 1.5 and the “SILAC ratio, SEC11A (P67812)” value ([3]; competitor 50 μM) was 3.3. The “SILAC ratio, MARCH5 (Q3KNM2)” value ([4]; competitor 5 μM) was 1.2, the “SILAC ratio, HMOX2 (P30519)” value ([5]; competitor 5 μM) was 1.3 and the “SILAC ratio, HMOX2 (P30519)” value ([5]; competitor 50 μM) was 3.4.

For `CN1CCN(C(=O)c2[nH]c3ccc([N+](=O)[O-])cc3c2-c2ccccc2)CC1` [MJN228, (4-Methylpiperazin-1-yl)(5-nitro-3-phenyl-1H-indol-2-yl)methanone], the “SILAC ratio Whsc1” value ([6]; competitor 10 μM) was 1.4, the “SILAC ratio Whsc1” value ([6]; competitor 25 μM) was 1.2 and the “SILAC ratio Whsc1” value ([6]; competitor 100 μM) was 1.6.
